Results reported in ChEMBL document CHEMBL5096164, “In Vivo Profiling of a Natural Alkaloid, Anatabine, in Rodents: Pharmacokinetics and Anti-Inflammatory Efficacy” (J Nat Prod, 2021).

What was measured:
Mus musculus [1] = assay: Antiinflammatory activity in LPS induced mouse model assessed as reduction in tumor necrosis factor alpha level in plasma at 1 mg/kg, po preincubated for 1 hr followed by LPS stimulation and measured after 2 hrs by ELISA method relative to control; assay type: functional; set-up: scale not given: the % may be the effect or the level left; conditions: time 3 hrs
Mus musculus [2] = assay: Antiinflammatory activity in LPS induced mouse model assessed as reduction in IL-6 level in plasma at 1 mg/kg, po preincubated for 1 hr followed by LPS stimulation and measured after 2 hrs by ELISA method relative to control; assay type: functional; set-up: scale not given: the % may be the effect or the level left; conditions: time 3 hrs

C[C@@H]1C[C@H]2[C@@H]3CCC4=CC(=O)C=C[C@]4(C)[C@@]3(F)[C@@H](O)C[C@]2(C)[C@@]1(O)C(=O)CO [DEXAMETHASONE]
Activity (Mus musculus [1]): 72.1% | Activity (Mus musculus [2]): 46.9%
